{"source": "ChEMBL document CHEMBL4257515", "about": "“Assessment of the trifluoromethyl ketone functionality as an alternative zinc-binding group for selective HDAC6 inhibition” (Medchemcomm, 2018)", "key": {"[1]": {"test_system": "SK-OV-3", "assay": "Antiproliferative activity against human SKOV3 cells at 10 uM measured every 2 hrs for 200 hrs by IncuCyte ZOOM cell confluence assay", "assay_type": "functional, cell-based"}, "[2]": {"molecular_target": "T1, Protein deacetylase HDAC6 (Homo sapiens) (UniProt Q9UBN7)", "T1 sequence (whole entry)": "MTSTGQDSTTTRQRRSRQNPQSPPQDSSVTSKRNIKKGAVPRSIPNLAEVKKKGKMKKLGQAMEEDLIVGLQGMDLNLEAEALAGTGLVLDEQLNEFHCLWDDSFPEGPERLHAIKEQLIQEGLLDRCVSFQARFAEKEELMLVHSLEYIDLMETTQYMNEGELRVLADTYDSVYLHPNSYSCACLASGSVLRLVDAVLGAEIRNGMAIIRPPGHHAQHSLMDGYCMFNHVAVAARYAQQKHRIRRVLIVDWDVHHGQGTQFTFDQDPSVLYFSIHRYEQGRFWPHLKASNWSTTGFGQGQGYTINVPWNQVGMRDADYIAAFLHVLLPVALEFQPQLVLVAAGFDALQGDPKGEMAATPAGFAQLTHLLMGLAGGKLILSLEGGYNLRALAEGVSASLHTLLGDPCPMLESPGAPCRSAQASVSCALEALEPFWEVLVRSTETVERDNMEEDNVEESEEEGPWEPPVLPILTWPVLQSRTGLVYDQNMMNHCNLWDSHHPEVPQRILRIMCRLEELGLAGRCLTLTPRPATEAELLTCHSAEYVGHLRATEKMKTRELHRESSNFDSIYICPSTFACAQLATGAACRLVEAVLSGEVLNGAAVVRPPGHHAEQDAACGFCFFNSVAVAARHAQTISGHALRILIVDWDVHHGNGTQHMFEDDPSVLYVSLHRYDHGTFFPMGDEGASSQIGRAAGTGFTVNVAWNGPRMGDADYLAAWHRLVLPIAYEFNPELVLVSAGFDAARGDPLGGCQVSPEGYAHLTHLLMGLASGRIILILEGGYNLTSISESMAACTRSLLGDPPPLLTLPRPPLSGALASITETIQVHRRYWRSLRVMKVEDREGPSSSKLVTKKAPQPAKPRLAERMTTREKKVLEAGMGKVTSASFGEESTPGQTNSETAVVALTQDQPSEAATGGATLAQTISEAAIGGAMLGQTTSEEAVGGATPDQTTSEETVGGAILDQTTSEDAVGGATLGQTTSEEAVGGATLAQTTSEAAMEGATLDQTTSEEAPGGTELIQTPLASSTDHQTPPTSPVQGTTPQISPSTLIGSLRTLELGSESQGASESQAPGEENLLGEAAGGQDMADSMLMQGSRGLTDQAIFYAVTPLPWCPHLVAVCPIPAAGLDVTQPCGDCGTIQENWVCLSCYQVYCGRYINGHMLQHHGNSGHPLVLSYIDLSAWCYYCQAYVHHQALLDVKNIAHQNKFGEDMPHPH", "assay": "Inhibition of full length recombinant human HDAC6 at 10 uM using Fluor-de-Lys deacetylase as substrate preincubated for 15 mins followed by substrate addition and measured after 60 mins by spectrofluorimetric method relative to control"}, "[3]": {"molecular_target": "T1, Protein deacetylase HDAC6 (Homo sapiens)", "assay": "Inhibition of HDAC6 in human SKOV3 cells assessed as increase in acetylated tubulin levels at 1 uM after 1 hr by immunoblot method", "assay_type": "cell-based"}, "[4]": {"molecular_target": "T1, Protein deacetylase HDAC6 (Homo sapiens)", "assay": "Inhibition of HDAC6 in human SKOV3 cells assessed as increase in acetylated tubulin levels at 1 to 50 uM after 1 hr by immunoblot method", "assay_type": "cell-based"}, "[5]": {"molecular_target": "Histone deacetylase (Homo sapiens) (UniProt Q13547+O15379+Q9UBN7+Q92769+Q9UQL6+Q8WUI4+Q9BY41+Q96DB2+P56524+Q9UKV0+Q969S8)", "assay": "Inhibition of nuclear HDAC in human SKOV3 cells assessed as increase in acetylated histone H3 levels at 1 to 50 uM after 1 hr by immunoblot method", "assay_type": "cell-based"}, "[6]": {"test_system": "SK-OV-3", "assay": "Antiproliferative activity against human SKOV3 cells at 1 to 50 uM measured every 2 hrs for 200 hrs by IncuCyte ZOOM cell confluence assay", "assay_type": "functional, cell-based"}}, "note": "Calls of active or inactive are those of the source. No cut-off for these calls is given here."}
{"molecule": "O=C(CCCCCCC(=O)Nc1ccccc1)NO", "values": [{"measurement": "Activity", "setting": "[1]", "result": "Active"}]}
{"molecule": "O=C(NO)c1ccccc1", "values": [{"measurement": "inhibition", "setting": "[2]", "result": 88, "unit": "%"}]}
{"molecule": "O=C(c1ccc(Cn2c3c(c4ccccc42)C[S+]([O-])CC3)cc1)C(F)(F)F", "note": "(stereo not given)", "values": [{"measurement": "inhibition", "setting": "[2]", "result": 17, "unit": "%"}]}
{"molecule": "O=C(c1ccccc1)C(F)(F)F", "values": [{"measurement": "inhibition", "setting": "[2]", "result": 0, "unit": "%"}]}
{"molecule": "O=C(NO)c1ccc(Cn2c3c(c4cc(F)ccc42)C[S+]([O-])CC3)cc1", "note": "(stereo not given)", "values": [{"measurement": "inhibition", "setting": "[2]", "result": 100, "unit": "%"}, {"measurement": "inhibition", "setting": "[3]", "result": "Active"}]}
{"molecule": "O=C(c1ccc(Cn2c3c(c4cc(F)ccc42)C[S+]([O-])CC3)cc1)C(F)(F)F", "note": "(stereo not given)", "values": [{"measurement": "inhibition", "setting": "[2]", "result": 25, "unit": "%"}, {"measurement": "inhibition", "setting": "[4]", "result": "inactive"}, {"measurement": "inhibition", "setting": "[5]", "result": "inactive"}, {"measurement": "Activity", "setting": "[6]", "result": "inactive"}]}
